The target of this assay is T1, Tyrosine-protein phosphatase non-receptor type 1 (Homo sapiens, UniProt P18031).
T1 sequence (P18031 whole entry): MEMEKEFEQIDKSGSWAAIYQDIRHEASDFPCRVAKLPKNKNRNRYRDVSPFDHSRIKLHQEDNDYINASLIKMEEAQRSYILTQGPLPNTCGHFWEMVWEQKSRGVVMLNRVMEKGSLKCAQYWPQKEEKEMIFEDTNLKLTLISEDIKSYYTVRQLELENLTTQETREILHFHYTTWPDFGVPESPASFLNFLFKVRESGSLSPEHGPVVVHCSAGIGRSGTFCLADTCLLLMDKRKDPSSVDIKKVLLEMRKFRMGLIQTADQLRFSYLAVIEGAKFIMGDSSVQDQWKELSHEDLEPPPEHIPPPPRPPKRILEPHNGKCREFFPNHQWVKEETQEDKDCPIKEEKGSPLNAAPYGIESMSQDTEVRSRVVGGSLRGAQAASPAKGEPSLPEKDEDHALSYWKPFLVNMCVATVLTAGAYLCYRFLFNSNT
The assay is described as follows: Inhibition of human recombinant PTP1B.

Each structure is given as a SMILES string.

This passage reports IC50 results from ChEMBL document CHEMBL1148666, “Inhibition of protein tyrosine phosphatase 1B by diterpenoids isolated from Acanthopanax koreanum” (Bioorg Med Chem Lett, 2006).

As a reminder, the IC50 is the concentration at which inhibition is half-maximal.

For the compound `CC(C)CC(=O)OC[C@H]1C[C@@]23CCC4[C@@](C)(CCC[C@@]4(C)C(=O)O)C2CC[C@@H]1C3` (some centres undefined), the IC50 is 7.1 µM.
Next, `C[C@@]12CCC[C@@](C)(C(=O)O)C1CC[C@@]13C[C@@H](CCC12)[C@](C)(O)C3` (some centres undefined): above 30 µM.
As for `C=C[C@@]1(C)CC=C2C(CCC3[C@](C)(CO)CCC[C@@]23C)C1` (some centres undefined) [ACANTHOL], the IC50 is above 30 µM.
For the compound `C=C[C@]1(C)CC[C@@]2(O)[C@@H](C1)C(=O)CC1[C@](C)(C(=O)O)CCC[C@]12C` (some centres undefined) [ACANTHOKOREOIC ACID A], the half-inhibitory concentration (IC50) is above 30 µM.
For `C=C1C[C@@]23CC[C@H]4[C@@](C)(CCC[C@@]4(C)C(=O)O)[C@@H]2CC[C@@H]1C3` [KAURENOIC ACID], the IC50 is 20.2 µM.
As to `CCCCCCCCCCCCCCCC(=O)C1=C(O)[C@@H](CO)OC1=O`, the half-inhibitory concentration (IC50) stood at 4.5 µM.
For the compound `C=C[C@]1(C)C=C2C(CC1)[C@]1(C)CCC[C@@](C)(C(=O)O)C1C[C@@H]2O` (some centres undefined), the IC50 is above 30 µM.
`C=C[C@@]1(C)CC=C2C(CCC3[C@](C)(C(=O)O)CCC[C@@]23C)C1` (some centres undefined) [ACANTHOIC ACID]: the IC50 was 23.5 µM.
As to `CC(C)CC(=O)OC[C@@]1(O)C[C@@]23CCC4[C@@](C)(CCC[C@@]4(C)C(=O)O)C2CC[C@@H]1C3` (some centres undefined), the IC50 was above 30 µM.
